Several values for one entry are separate records, joined by “and”; a condition that tells them apart may be missing. Equal entries are not always repeated. Where two headings read alike, the source gives them in different places.
What was measured:
[1] = system: aflatoxines produced by Aspergillus parasiticus; assay: microbe, parasite or virus in culture; format: cell-based
[2] = system: Uromyces appendiculatus; assay: In vivo preventive test on Uromyces appendiculatus (beans); conditions: 100 ppm of active ingredient, evaluated 10 days after inoculation
In short: (§1)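 Young plants sprayed preventively at the stated application rate with compound dissolved in acetone/N,N-dimethylacetamide plus alkylaryl polyglycol ether emulsifier and diluted with water to the desired concentration.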

[3] = system: Venturia inaequalis; assay: In vivo preventive test on Venturia inaequalis (apple scab); conditions: 100 ppm of active ingredient, evaluated 10 days after inoculation
In short: as §1

[4] = system: Pyricularia oryzae; conditions: in vivo
[5] = system: Fusarium nivale (var. majus); assay: In vivo preventive test on Fusarium nivale (wheat); conditions: 500 ppm of active ingredient, evaluated 5 days after inoculation
Protocol: (§2) Solvent: 49 parts by weight of N,N-dimethylacetamide Emulsifier: 1 part by weight of alkylaryl polyglycol ether To produce a suitable preparation of active compound, 1 part by weight of active compound or active compound combination is mixed with the stated amounts of solvent and emulsifier, and the concentrate is diluted with water to the desired concentration. To test for preventive activity, young plants are sprayed with the preparation of active compound or active compound combination at the stated rate of application. After the spray coating has been dried, the plants are slightly injured by using a sandblast and afterwards they are sprayed with a conidia suspension of Fusarium nivale (var. majus).

[6] = system: Aspergillus parasiticus; assay: microbe, parasite or virus in culture; format: cell-based
[7] = system: Phakopsora pachyrhizi; assay: In vivo protective test on Phakopsora pachyrhizi (soybeans); conditions: Table N, 250 ppm of active ingredient, evaluated 11 days after inoculation
[8] = system: Puccinia triticina; assay: In vivo preventive test on Puccinia triticina (wheat); conditions: Table K, 500 ppm of active ingredient, evaluated 8 days after inoculation
[9] = system: Cochliobolus miyabeanus; assay: In vivo protective test on Cochliobolus miyabeanus (rice); conditions: Table M, 250 ppm of active ingredient, evaluated 4 days after inoculation
[10] = system: Pyrenophora teres; assay: In vivo preventive test on Pyrenophora teres (barley); conditions: 500 ppm of active ingredient, evaluated 7-9 days after inoculation
In short: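 Preventive test: young barley plants received a water-diluted spray of compound formulated with DMF solvent plus alkylaryl polyglycol ether emulsifier, at the stated rate. Inoculation with an aqueous spore suspension of Pyrenophora teres followed one day after spraying.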

[11] = system: Blumeria graminis fsp. hordei; assay: In vivo preventive test on Blumeria graminis (barley); conditions: 500 ppm of active ingredient, evaluated 7 days after inoculation
Protocol: as §2, with “dusted” for “slightly injured by using a sandblast and afterwards they are sprayed”, “spores” for “a conidia suspension”, “Blumeria graminis fsp. hordei.” for “Fusarium nivale (var. majus).”

[12] = system: Sphaerotheca fuliginea; assay: In vivo preventive test on Sphaerotheca fuliginea (cucumber); conditions: 500 ppm of active ingredient, evaluated 7 days after inoculation
In short: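 Young cucumber plants sprayed with compound (in DMF with alkylarylpolyglycolether emulsifier, diluted in water) at the stated application rate. Inoculated one day later with aqueous Sphaerotheca fuliginea spore suspension. Plants then held in greenhouse at approximately 23° C and approximately 70% relative humidity.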

[13] = system: Septoria tritici; assay: In vivo preventive test on Septoria tritici (wheat); conditions: 500 ppm of active ingredient, evaluated 21 days after inoculation
In short: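 Compound formulated in N,N-dimethylacetamide with alkylaryl polyglycol ether emulsifier and diluted in water to the stated rate. Young wheat plants sprayed preventively; after the deposit dried, they were inoculated with a Septoria tritici spore suspension.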

[14] = system: Alternaria solani; assay: In vivo preventive test on Alternaria solani (tomato); conditions: 500 ppm of active ingredient, evaluated 7 days after inoculation
In short: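 Preventive set-up: Alternaria solani spores, as aqueous suspension, applied to young plants one day after spraying. Spray contained active compound formulated with N,N-dimethylformamide and emulsifier, water-diluted to the desired application rate.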

[15] = system: Botrytis cinerea; assay: In vivo preventive test on Botrytis cinerea (beans); conditions: Table L, 500 ppm of active ingredient, lesion size 2 days after inoculation
In short: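 Young bean plants sprayed preventively with compound in acetone/dimethylacetamide/emulsifier diluted in water; after drying, each leaf inoculated with 2 agar pieces bearing Botrytis cinerea. Kept dark at 20° C, 100% humidity; lesion size scored at 2 days as % efficacy (0% = untreated, 100% = no disease).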

[16] = log P by HPLC on reversed-phase column (EEC Directive 79/831 Annex V.A8); format: physicochemical
Protocol: In table 1, the log P values were determined in accordance with EEC Directive 79/831 Annex V.A8 by HPLC (High Performance Liquid Chromatography) on a reversed-phase column (C18), using the method described below: Temperature: 40° C.; […]

[17] = system: Leptosphaeria nodorum; assay: In vivo preventive test on Leptosphaeria nodorum (wheat); conditions: 500 ppm of active ingredient, evaluated 7-9 days after inoculation
In short: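 Plants were inoculated with aqueous L. nodorum spores one day after a protective spray. The spray contained the compound at the stated rate, as a water-diluted concentrate in N,N-dimethylacetamide plus alkylaryl polyglycol ether emulsifier.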

[18] = system: Fusarium graminearum; conditions: in vivo

CC(C)CC(C)C1CCCC1NC(=O)c1c(C(F)F)nn(C)c1Cl (mixture of isomers) [Example 311]
% Inhibition of Aflatoxin at 50 μM ([1]; 50 µM): 100%
Efficacy [2]: 100%
Efficacy [3]: 100%
Efficacy [4]: 96%
Efficacy [5]: 100%
% Inhibition of fungal growth at 50 μM ([6]; 50 µM): 97%
Efficacy [7]: 98%
Efficacy [8]: 100%
Efficacy [9]: 97%
Efficacy [10]: 100%
Efficacy [11]: 100%
Efficacy [12]: 90%
Efficacy [13]: 93%
Efficacy [14]: 100%

CC(C)CC(C)C1CCCC1NC(=O)c1c(C(F)F)nn(C)c1F (mixture of isomers) [Example 315]
% Inhibition of Aflatoxin at 50 μM [1]: 100%
Efficacy [2]: 100%
Efficacy [3]: 100%
Efficacy [4]: 95%
Efficacy [5]: 100%
Efficacy [15]: 70%
% Inhibition of fungal growth at 50 μM ([6]; 50 µM): 100%
Efficacy [8]: 95%
Efficacy [9]: 97%
Efficacy [10]: 100%
Efficacy [11]: 100%
Efficacy [12]: 71%
Efficacy [13]: 100%
Efficacy [14]: 100%

CCCCC1CCCCC1NC(=O)c1c(C(F)F)nn(C)c1F (single isomer, unassigned) [Example 329]
logP [16]: 3.80 isomer A
% Inhibition of Aflatoxin at 50 μM [1]: 100%
Efficacy [2]: 100%
Efficacy [17]: 90%
Efficacy [3]: 100%
Efficacy [4]: 98%
Efficacy [5]: 100%
Efficacy [15]: 99%
% Inhibition of fungal growth at 50 μM ([6]; 50 µM): 97%
Efficacy [8]: 100%
Efficacy [9]: 98%
Efficacy [10]: 100%
Efficacy [11]: 100%
Efficacy [12]: 100%
Efficacy [13]: 100%
Efficacy [14]: 100%

CCCCC1CCCCC1NC(=O)c1c(C(F)F)nn(C)c1F (single isomer, unassigned) [Example 330]
logP [16]: 4.06 isomer B
% Inhibition of Aflatoxin at 50 μM [1]: 100%
Efficacy [4]: 80%
Efficacy [5]: 100%
% Inhibition of fungal growth at 50 μM ([6]; 50 µM): 87%
Efficacy [8]: 80%
Efficacy [9]: 85%
Efficacy [10]: 100%
Efficacy [11]: 100%
Efficacy [12]: 88%
Efficacy [13]: 78%
Efficacy [14]: 95%

CC(C)CC(C)C1CCCCC1NC(=O)c1c(C(F)F)nn(C)c1F (single isomer, unassigned) [Example 338]
logP [16]: 4.73 isomer B
% Inhibition of Aflatoxin at 50 μM [1]: 100%
Efficacy [3]: 100%
Efficacy [4]: 97%
Efficacy [5]: 100%
% Inhibition of fungal growth at 50 μM [6]: 100%
Efficacy [7]: 98%
Efficacy [8]: 100%
Efficacy [9]: 96%
Efficacy [10]: 100%
Efficacy [11]: 100%
Efficacy [12]: 100%
Efficacy [13]: 100%
Efficacy [14]: 100%

CCCC1CCCCC1NC(=O)c1c(C(F)F)nn(C)c1F (single isomer, unassigned) [Example 344]
logP [16]: 3.61 isomer B
% Inhibition of Aflatoxin at 50 μM [1]: 100%
Efficacy [17]: 90%
Efficacy [4]: 95%
Efficacy [5]: 100%
Efficacy [15]: 100%
% Inhibition of fungal growth at 50 μM ([6]; 50 µM): 89%
Efficacy [8]: 100%
Efficacy [9]: 95%
Efficacy [10]: 100%
Efficacy [11]: 100%
Efficacy [12]: 100%
Efficacy [13]: 94%
Efficacy [14]: 100%

Cn1nc(C(F)F)c(C(=O)NC2CCCCC2CCC(C)(C)C)c1F (single isomer, unassigned) [Example 357]
logP [16]: 4.50 isomer A
Efficacy [2]: 100%
Efficacy [3]: 100%
Efficacy [4]: 97%
Efficacy [5]: 100%
Efficacy [7]: 85%
Efficacy [8]: 100%
Efficacy [9]: 93%
Efficacy [10]: 100%
Efficacy [11]: 100%
Efficacy [12]: 100%
Efficacy [13]: 100%
Efficacy [14]: 100%

Cn1nc(C(F)F)c(C(=O)N(CCOc2c(Cl)cccc2Cl)C2CC2)c1Cl [Example 161]
logP [16]: 3.69
Efficacy [18]: 86%
Efficacy [17]: 90%
Efficacy [8]: 90%
Efficacy [10]: 100%
Efficacy [11]: 100%
Efficacy [13]: 80%

Cn1nc(C(F)F)c(C(=O)N(CCOc2c(Cl)cccc2Cl)C2CC2)c1F [Example 162]
logP [16]: 3.55
% Inhibition of Aflatoxin at 50 μM ([1]; 50 µM): 100%
Efficacy [18]: 100%
Efficacy [17]: 90%
% Inhibition of fungal growth at 50 μM ([6]; 50 µM): 100%
Efficacy [8]: 80%
Efficacy [10]: 95%
Efficacy [11]: 100%
Efficacy [12]: 95%
Efficacy [13]: 90%

CC(CCc1c(Cl)cc(Cl)cc1Cl)NC(=O)c1c(C(F)F)nn(C)c1F (centres unmarked) [Example 215]
logP [16]: 4.29
% Inhibition of Aflatoxin at 50 μM [1]: 100%
Efficacy [4]: 98%
Efficacy [5]: 71%
% Inhibition of fungal growth at 50 μM [6]: 100%
Efficacy [9]: 98%
Efficacy [10]: 100%
Efficacy [11]: 100%
Efficacy [12]: 100%
Efficacy [13]: 90%
Efficacy [14]: 95%

CON(C(=O)c1c(C(F)F)nn(C)c1F)C(C)CCc1c(Cl)cc(Cl)cc1Cl (centres unmarked) [Example 217]
logP [16]: 4.77
% Inhibition of Aflatoxin at 50 μM [1]: 100%
Efficacy [17]: 78%
Efficacy [3]: 100%
Efficacy [4]: 97%
Efficacy [5]: 100%
% Inhibition of fungal growth at 50 μM [6]: 100%
Efficacy [8]: 89%
Efficacy [9]: 98%
Efficacy [10]: 100%
Efficacy [11]: 100%
Efficacy [12]: 100%
Efficacy [13]: 100%

Cn1nc(C(F)F)c(C(=O)N(CC#Cc2ccccc2)C2CC2)c1F [Example 271]
logP [16]: 3.19
Efficacy [18]: 93%
Efficacy [17]: 90%
Efficacy [8]: 89%
Efficacy [10]: 95%
Efficacy [11]: 78%
Efficacy [12]: 98%
Efficacy [13]: 88%

CCCCC1CCCC1NC(=O)c1c(C(F)F)nn(C)c1F (centres unmarked) [Example 306]
logP [16]: 3.59
% Inhibition of Aflatoxin at 50 μM [1]: 100%
Efficacy [2]: 70%
Efficacy [3]: 99%
Efficacy [4]: 95%
Efficacy [5]: 100%
Efficacy [15]: 94%
% Inhibition of fungal growth at 50 μM [6]: 100%
Efficacy [8]: 95%
Efficacy [9]: 95%
Efficacy [10]: 100%
Efficacy [11]: 100%
Efficacy [12]: 95%
Efficacy [14]: 100%

CC(C)CC(C)C1CCCCC1NC(=O)c1c(C(F)F)nn(C)c1F (centres unmarked) [Example 339]
logP [16]: 4.54
% Inhibition of Aflatoxin at 50 μM [1]: 100%
Efficacy [2]: 100%
Efficacy [17]: 70% and 94%
Efficacy [3]: 100%
Efficacy [4]: 98%
Efficacy [5]: 100%
% Inhibition of fungal growth at 50 μM [6]: 100%
Efficacy [7]: 98%
Efficacy [8]: 100%
Efficacy [9]: 92%
Efficacy [10]: 94%
Efficacy [11]: 100%
Efficacy [12]: 100%
Efficacy [13]: 100%
Efficacy [14]: 100%
